Experimental data published in US8084649B2, “Herbicides” (Syngenta Crop Protection, inc., priority 2007, dated 2011).

Legend:
Assay type in all cases: in vivo
Avena fatua (AVEFA) [1] = assay: Post-emergence herbicidal activity, glasshouse pot test; settings: Avena fatua, rate 125 g/ha, evaluated after 14 or 15 days, read-out: Post-emergence activity, AVEFA (100=total damage to plant; 0=no damage to plant)
Description: (§1) Monocotyledonous and dicotyledonous test plants were sown in sterilised standard soil in pots. After cultivation for one day (pre-emergence) or after 10 days cultivation (post-emergence) under controlled conditions in a glasshouse, the plants were sprayed with an aqueous spray solution derived from the formulation of the technical active ingredient in 0.6 ml acetone and 45 ml formulation solution containing 10.6% Emulsogen EL (Registry number 61791-12-6), 42.2% N-methylpyrrolidone, 42.2% dipropylene glycol monomethyl ether (Registry number 34590-94-8) and 0.2% X-77 (Registry number 11097-66-8). The test plants were then grown in a greenhouse under optimum conditions until, 14 or 15 days later for post-emergence and 20 days for pre-emergence, the test was evaluated (100=total damage to plant; 0=no damage to plant). Alopecurus myosuroides (ALOMY), Avena fatua (AVEFA), Lolium perenne (LOLPE), Setaria faberi (SETFA), Digitaria sanguinalis (DIGSA), Echinochloa crus-galli (ECHCG) Post-Emergence Activity

Lolium perenne (LOLPE) [2] = assay: as above; settings: Lolium perenne, rate 125 g/ha, evaluated after 14 or 15 days, read-out: Post-emergence activity, LOLPE (100=total damage to plant; 0=no damage to plant)
Description: as §1

[3] = system: Digitaria sanguinalis (DIGSA); assay: as above; settings: Digitaria sanguinalis, rate 125 g/ha, evaluated after 14 or 15 days, read-out: Post-emergence activity, DIGSA (100=total damage to plant; 0=no damage to plant)
Description: as §1

[4] = system: Alopecurus myosuroides (ALOMY); assay: as above; settings: Alopecurus myosuroides, rate 125 g/ha, evaluated after 14 or 15 days, read-out: Post-emergence activity, ALOMY (100=total damage to plant; 0=no damage to plant)
Description: as §1

Setaria faberi (SETFA) [5] = assay: as above; settings: Setaria faberi, rate 125 g/ha, evaluated after 14 or 15 days, read-out: Post-emergence activity, SETFA (100=total damage to plant; 0=no damage to plant)
Description: as §1

Avena fatua (AVEFA) [6] = assay: Pre-emergence herbicidal activity, glasshouse pot test; settings: Avena fatua, 480 h, rate 500 g/ha, evaluated after 20 days, read-out: Pre-emergence activity, AVEFA (100=total damage to plant; 0=no damage to plant)
Description: as §1, with “Pre-Emergence” for “Post-Emergence”

Lolium perenne (LOLPE) [7] = assay: as above; settings: Lolium perenne, 480 h, rate 500 g/ha, evaluated after 20 days, read-out: Pre-emergence activity, LOLPE (100=total damage to plant; 0=no damage to plant)
Description: as §1, with “Pre-Emergence” for “Post-Emergence”

[8] = system: Digitaria sanguinalis (DIGSA); assay: as above; settings: Digitaria sanguinalis, 480 h, rate 500 g/ha, evaluated after 20 days, read-out: Pre-emergence activity, DIGSA (100=total damage to plant; 0=no damage to plant)
Description: as §1, with “Pre-Emergence” for “Post-Emergence”

[9] = system: Alopecurus myosuroides (ALOMY); assay: as above; settings: Alopecurus myosuroides, 480 h, rate 500 g/ha, evaluated after 20 days, read-out: Pre-emergence activity, ALOMY (100=total damage to plant; 0=no damage to plant)
Description: as §1, with “Pre-Emergence” for “Post-Emergence”

Setaria faberi (SETFA) [10] = assay: as above; settings: Setaria faberi, 480 h, rate 500 g/ha, evaluated after 20 days, read-out: Pre-emergence activity, SETFA (100=total damage to plant; 0=no damage to plant)
Description: as §1, with “Pre-Emergence” for “Post-Emergence”

[11] = system: Echinochloa crus-galli (ECHCG); assay: as above; settings: Echinochloa crus-galli, 480 h, rate 500 g/ha, evaluated after 20 days, read-out: Pre-emergence activity, ECHCG (100=total damage to plant; 0=no damage to plant)
Description: as §1, with “Pre-Emergence” for “Post-Emergence”

SMILES: CCC(=O)OC1=C(c2c(CC)cc(C)cc2CC)C(=O)CC2(CCOCC2)C1 [Compound P2]
- pest or weed control at 125 g/ha (Avena fatua (AVEFA) [1]): 90%
- pest or weed control at 125 g/ha (Lolium perenne (LOLPE) [2]): 80%
- pest or weed control at 125 g/ha [3]: 100%
- pest or weed control at 125 g/ha [4]: 80%
- pest or weed control at 125 g/ha (Setaria faberi (SETFA) [5]): 70%
- pest or weed control at 500 g/ha (Avena fatua (AVEFA) [6]): 100%
- pest or weed control at 500 g/ha (Lolium perenne (LOLPE) [7]): 100%
- pest or weed control at 500 g/ha [8]: 100%
- pest or weed control at 500 g/ha [9]: 100%
- pest or weed control at 500 g/ha (Setaria faberi (SETFA) [10]): 100%
- pest or weed control at 500 g/ha [11]: 100%

SMILES: CCc1cc(C)cc(CC)c1C1=C(OC(=O)CC(C)(C)C)CC2(CCOCC2)CC1=O [Compound P6]
- pest or weed control at 125 g/ha (Avena fatua (AVEFA) [1]): 80%
- pest or weed control at 125 g/ha (Lolium perenne (LOLPE) [2]): 10%
- pest or weed control at 125 g/ha [3]: 30%
- pest or weed control at 125 g/ha [4]: 60%
- pest or weed control at 125 g/ha (Setaria faberi (SETFA) [5]): 0%
- pest or weed control at 500 g/ha (Avena fatua (AVEFA) [6]): 90%
- pest or weed control at 500 g/ha (Lolium perenne (LOLPE) [7]): 100%
- pest or weed control at 500 g/ha [8]: 100%
- pest or weed control at 500 g/ha [9]: 100%
- pest or weed control at 500 g/ha (Setaria faberi (SETFA) [10]): 70%
- pest or weed control at 500 g/ha [11]: 70%

SMILES: CCCCCCC(=O)OC1=C(c2c(CC)cc(C)cc2CC)C(=O)CC2(CCOCC2)C1 [Compound P10]
- pest or weed control at 125 g/ha (Avena fatua (AVEFA) [1]): 100%
- pest or weed control at 125 g/ha (Lolium perenne (LOLPE) [2]): 90%
- pest or weed control at 125 g/ha [3]: 80%
- pest or weed control at 125 g/ha [4]: 100%
- pest or weed control at 125 g/ha (Setaria faberi (SETFA) [5]): 70%
- pest or weed control at 500 g/ha (Avena fatua (AVEFA) [6]): 100%
- pest or weed control at 500 g/ha (Lolium perenne (LOLPE) [7]): 100%
- pest or weed control at 500 g/ha [8]: 100%
- pest or weed control at 500 g/ha [9]: 100%
- pest or weed control at 500 g/ha (Setaria faberi (SETFA) [10]): 100%
- pest or weed control at 500 g/ha [11]: 100%

SMILES: CCCC(CC)C(=O)OC1=C(c2c(CC)cc(C)cc2CC)C(=O)CC2(CCOCC2)C1 (stereo not drawn) [Compound P15]
- pest or weed control at 125 g/ha (Avena fatua (AVEFA) [1]): 70%
- pest or weed control at 125 g/ha (Lolium perenne (LOLPE) [2]): 0%
- pest or weed control at 125 g/ha [3]: 70%
- pest or weed control at 125 g/ha [4]: 10%
- pest or weed control at 125 g/ha (Setaria faberi (SETFA) [5]): 40%
- pest or weed control at 500 g/ha (Avena fatua (AVEFA) [6]): 90%
- pest or weed control at 500 g/ha (Lolium perenne (LOLPE) [7]): 100%
- pest or weed control at 500 g/ha [8]: 90%
- pest or weed control at 500 g/ha [9]: 0%
- pest or weed control at 500 g/ha (Setaria faberi (SETFA) [10]): 70%
- pest or weed control at 500 g/ha [11]: 60%

SMILES: CCc1cc(C)cc(CC)c1C1=C(OS(=O)(=O)CC)CC2(CCOCC2)CC1=O [Compound P28]
- pest or weed control at 125 g/ha (Avena fatua (AVEFA) [1]): 10%
- pest or weed control at 125 g/ha (Lolium perenne (LOLPE) [2]): 0%
- pest or weed control at 125 g/ha [3]: 10%
- pest or weed control at 125 g/ha [4]: 0%
- pest or weed control at 125 g/ha (Setaria faberi (SETFA) [5]): 0%
- pest or weed control at 500 g/ha (Avena fatua (AVEFA) [6]): 30%
- pest or weed control at 500 g/ha (Lolium perenne (LOLPE) [7]): 80%
- pest or weed control at 500 g/ha [8]: 70%
- pest or weed control at 500 g/ha [9]: 80%
- pest or weed control at 500 g/ha (Setaria faberi (SETFA) [10]): 70%
- pest or weed control at 500 g/ha [11]: 10%

SMILES: C#CCOC1=C(c2c(CC)cc(C)cc2CC)C(=O)CC2(CCOCC2)C1 [Compound P31, 9-(2,6-diethyl-4-methylphenyl)-10-prop-2-ynyloxy-3-oxaspiro[5.5]undec-9-en-8-one]
- pest or weed control at 125 g/ha (Avena fatua (AVEFA) [1]): 70%
- pest or weed control at 125 g/ha (Lolium perenne (LOLPE) [2]): 50%
- pest or weed control at 125 g/ha [3]: 20%
- pest or weed control at 125 g/ha [4]: 70%
- pest or weed control at 125 g/ha (Setaria faberi (SETFA) [5]): 60%
- pest or weed control at 500 g/ha (Avena fatua (AVEFA) [6]): 100%
- pest or weed control at 500 g/ha (Lolium perenne (LOLPE) [7]): 100%
- pest or weed control at 500 g/ha [8]: 100%
- pest or weed control at 500 g/ha [9]: 100%
- pest or weed control at 500 g/ha (Setaria faberi (SETFA) [10]): 90%
- pest or weed control at 500 g/ha [11]: 100%
